Assay results taken from ChEMBL document CHEMBL3301472, “MMV Malaria Box HIV and cytotoxicity screening”.

Assays:
[1] = tested on: Human immunodeficiency virus 1; test: MMV: HIV CXCR4-tropic env NL4-3 pseudovirus assay produces luciferase signal in lieu of replicating viral particles Day 3 pi, U87-CD4-CXCR4, % inhibition at 5 mM compound; format: functional; parameters: dose or concentration left out as unconfirmed; conditions: Human immunodeficiency virus 1, NL4-3, U87.CD4.CXCR4, 72 h
[2] = MMV: MTT Cytotoxicity Assay Day 3 pi, U87-CD4-CXCR4 cells, % cell death @ 5mM compound; format: toxicity, cell-based; conditions: human, u87-cd4-cxcr4, 5000 µM
[3] = MMV: MTT Cytotoxicity Assay Day 3 pi, U87-CD4-CCR5 cells, % cell death @ 5mM compound; format: toxicity, cell-based; conditions: human, u87-cd4-ccr5, 5000 µM
[4] = MMV: MTT Cytotoxicity Assay Day 7 pi of Assay #11 (NO washout), U87-CD4-CXCR4 cells, % cell death @ 5mM compound; format: toxicity, cell-based; conditions: human, u87-cd4-cxcr4, 5000 µM
[5] = MMV: MTT Cytotoxicity Assay Day 7 pi of Assay #7 (compound washed out Day 1 pi), U87-CD4-CXCR4 cells, % cell death @ 5mM compound; format: toxicity, cell-based; conditions: human, u87-cd4-cxcr4, 5000 µM
[6] = MMV: MTT Cytotoxicity Assay Day 7 pi of Assay #6 (compound washed out Day 1 pi), U87-CD4-CCR5 cells, % cell death @ 5mM compound; format: toxicity, cell-based; conditions: human, u87-cd4-ccr5, 5000 µM
[7] = MMV: MTT Cytotoxicity Assay Day 7 pi of Assay #10 (NO washout), U87-CD4-CCR5 cells, % cell death @ 5mM compound; format: toxicity, cell-based; conditions: human, u87-cd4-ccr5, 5000 µM
[8] = tested on: Human immunodeficiency virus 1; test: MMV: HIV JRFL CCR5-tropic replication-competent virus, virus & compound washed out Day 1 pi, P24 ELISA Day 7 pi, U87-CD4-CCR5, % inhibition at 5 mM compound; format: functional; parameters: dose or concentration left out as unconfirmed; conditions: Human immunodeficiency virus 1, JR-FL

Structure (SMILES) | inhibition [1] | % Cell Death [2] | % Cell Death [3] | % Cell Death [4] | % Cell Death [5] | % Cell Death [6] | % Cell Death [7] | inhibition [8]
CC1CCN(Cc2ccc(NC(=O)c3cc4ccc5cccnc5c4[nH]3)cc2)CC1 | -1% | 23 | 9 | -7 | -14 | 17 | 3 | 
Cc1ccnc(NC(c2cccc(OCc3ccccc3)c2)c2ccc3cccnc3c2O)c1 (stereo unspecified) | 1% | -12 | 19 | 27 | 37 | 49 | -16 | 
COc1ccc2nc(C)cc(Nc3cccc(O)c3)c2c1.Cl | 7% | 39 | 16 | 76 | 0 | 10 | 43 | 
CCCCCC(=O)N1c2ccccc2N=C2CC(c3ccc(OC)c(OC)c3)CC(O)=C2C1c1ccc(C(F)(F)F)cc1 (stereo unspecified) | 2% | 14 | 11 | -20 | -21 | 5 | 16 | 
COc1ccc(CN2CCN(Cc3ccccc3)CC2)c(O)c1 | -2% | -16 | 16 | 10 | 53 | -1 | 4 | 
FC(F)(F)c1cccc(Nc2nc(-c3ccccc3)nc3ncccc23)c1 | 9% | -16 | 1 | -17 | 15 | 0 | 19 | 
COc1ccc(C(C)=O)cc1N1C(=O)C2C(C1=O)C1(c3ccccc3)C(=O)C2(c2ccccc2)C(c2ccc(C)cc2)=C1c1ccc(C)cc1 (stereo unspecified) | 3% | 39 | 28 | 5 | 14 | 2 | 16 | 
CCn1c(CN2CCN(Cc3ccccc3)CC2)nc2cc(NC(=O)c3cccs3)ccc21 | 1% | 21 | 21 | -27 | -27 | 12 | 10 | 
CSc1ccccc1C(=O)Nc1nc(-c2ccccn2)cs1 | 4% | 86 | 28 | 2 | 28 | 18 | 3 | 
OC(CNCC1CCCO1)Cn1c2ccc(Cl)cc2c2cc(Cl)ccc21 (stereo unspecified) | 0% | 15 | 11 | -7 | -28 | 26 | -2 | 
CCOc1cc2c(cc1OCC)C(c1cc(C)c(O)c(C)c1)NCC2.Cl (stereo unspecified) | 5% | 16 | 4 | -11 | -10 | 18 | -3 | 
COc1ccc(C2NCCc3c2[nH]c2ccccc32)cc1CN1CCN(c2ccc(F)cc2)CC1.Cl (stereo unspecified) | 3% | 35 | 27 | -62 | -8 | 24 | 14 | 
COc1ccc(Nc2nc(N/N=C/c3ccc(O)cc3)nc(Nc3ccc([N+](=O)[O-])cc3)n2)cc1 | 7% | 23 | 11 | 0 | 50 | 33 | 11 | 
CCOc1cccc2sc(N(Cc3cccnc3)C(=O)C3CCCCC3)nc12 |  | 9 | 2 | 52 | 8 | 34 | 65 | 4%
CCC(=O)Nc1nnc(Cc2ccc(OC)c(OC)c2)s1 |  | 21 | 17 | -23 | -14 | -1 | 9 | -1%
COc1ccc(-c2nc(N3CCN(C(=O)C4CCCCC4)CC3)c3c4c(sc3n2)CCCC4)cc1 |  | 46 | 2 | 104 | -26 | -3 | 113 | 5%
CN(C)c1ccc(N2C(N)=NC(N)=NC2(C)C)cc1 |  | 21 | -12 | 21 | 12 | 14 | 4 | 1%

Structure (SMILES) | inhibition [1] | % Cell Death [2] | % Cell Death [3] | % Cell Death [4] | % Cell Death [5] | % Cell Death [6] | % Cell Death [7] | inhibition [8]
CC(C)CNC(=O)c1c(N)n(CCc2ccccc2F)c2nc3ccccc3nc12 |  | 47 | 0 | 99 | -6 | 4 | 35 | 3%
Cc1cc(C)c2nc(N3CCC(C(=O)NCCCN4CCC(N5CCCCC5)CC4)CC3)sc2c1 |  | 8 | -8 | -37 | -20 | 5 | -39 | 1%
O=C(Nc1cccc(C2=NCCN2)c1)Nc1cccc(C2=NCCN2)c1 [IMIDOCARB] |  | 63 | 31 | 65 | 15 | -6 | 63 | 7%
O=C(NCc1ccco1)C1CCN(S(=O)(=O)c2ccc(Cl)cc2)CC1 |  | 12 | 22 | 23 | -15 | 37 | 18 | 1%
C=CC12CCN(CC1)C(C(O)c1ccnc3ccc(OC)cc13)C2.Cl (stereo unspecified) |  | 27 | -14 | -24 | -23 | -12 | 27 | -2%
CCCCOC(=O)c1ccc(Nc2cc(C)nc3ccc(OC)cc23)cc1 |  | 30 | 32 | -45 | -10 | 16 | 21 | 0%
CCn1c(SCC(=O)Nc2cc(C(F)(F)F)ccc2Cl)nc2ccccc2c1=O |  | 81 | -1 | 17 | -27 | 23 | 19 | 8%
Clc1ccc2c(N3CCCC3)ccnc2c1 |  | 21 | 8 | -37 | 1 | 3 | 16 | 5%
Cc1sc2ncnc(Sc3nc4ccccc4[nH]3)c2c1C |  | 18 | 16 | -15 | -5 | -6 | 27 | -1%
Cc1cc(Nc2cccc(F)c2)nc(NCc2ccccc2)n1 |  | 33 | 21 | -41 | -12 | 6 | 20 | 5%
Cc1cc(NC(=O)c2ccc(-c3ccccc3)cc2)no1 |  | 43 | -16 | -1 | -27 | -24 | 32 | 4%
COCCNC(=O)c1ccc(OC2CCN(Cc3ccc(F)c(F)c3)CC2)c(Cl)c1 |  | 4 | 31 | -22 | -5 | 20 | 15 | 9%
CN1CCN(c2ccc(Nc3c4ccccc4nc4ccccc34)cc2)CC1 |  | 22 | 11 | -32 | -14 | 22 | 19 | 6%
O=C(NCC(c1ccsc1)N1CCCCCC1)c1ccc(C(F)(F)F)cc1 (stereo unspecified) |  | 23 | 10 | 12 | -26 | 12 | 19 | 1%
CC(O)(c1ccc(Cl)cc1)C(CN1CCCCC1)c1ccccc1.Cl (stereo unspecified) |  | 3 | -11 | -5 | -24 | 24 | 19 | 3%
CCCCCCc1cc2cc(-c3nc4ccccc4[nH]3)c(=Nc3ccccc3C)oc2cc1O |  | 25 | 31 | 53 | -2 | 15 | 44 | 4%
